Experimental data: the NIST ThermoML archive (doi:10.1016/j.jct.2014.03.021)
Numbers after ± are expanded uncertainties.

How the values were obtained:
[1] = refractive index (Na D-line) (dimensionless); details: 101.33 kPa, Liquid, Standard Abbe refractometry
[2] = 101.33 kPa, Liquid; for mass density: Vibrating tube method; for speed of sound: Sing-around technique in a fixed-path interferometer; for electrical conductivity: Alternating current cell with electrodes

SMILES	refractive index ([1]; 293.15 K)	refractive index ([1]; 298.15 K)	refractive index ([1]; 303.15 K)	refractive index ([1]; 308.15 K)	refractive index ([1]; 313.15 K)	refractive index ([1]; 318.15 K)	refractive index ([1]; 323.15 K)	mass density ([2]; 293.15 K) [kg/m3]	mass density ([2]; 298.15 K) [kg/m3]	mass density ([2]; 303.15 K) [kg/m3]	mass density ([2]; 308.15 K) [kg/m3]	speed of sound ([2]; 313.15 K) [m/s]	mass density ([2]; 313.15 K) [kg/m3]	mass density ([2]; 318.15 K) [kg/m3]	speed of sound ([2]; 323.15 K) [m/s]	mass density ([2]; 323.15 K) [kg/m3]	further results
O [water]	1.33299 ± 0.00031	1.33251 ± 0.00031	1.33197 ± 0.00031	1.33135 ± 0.00031	1.33065 ± 0.00031	1.3299 ± 0.00031	1.32911 ± 0.00031	998.738 ± 0.11	997.576 ± 0.11	996.181 ± 0.11	994.563 ± 0.11	1528.8 ± 1.2	992.744 ± 0.11	990.737 ± 0.11	1542.3 ± 1.2	988.556 ± 0.11	
C[C@H](O)C(=O)[O-].C[N+](C)(C)CCO	1.48146 ± 0.001	1.48056 ± 0.001	1.47931 ± 0.001	1.47808 ± 0.001	1.47676 ± 0.001	1.47544 ± 0.001	1.47418 ± 0.001	1143.46 ± 7.1	1140.3 ± 7.1	1137.16 ± 7	1134.04 ± 7	1859.1 ± 5.2	1130.94 ± 6.9	1127.86 ± 6.9	1831.1 ± 5.2	1124.79 ± 6.9	electrical conductivity ([2]; 293.15 K): 0.0138 ± 0.00083 S/m; speed of sound ([2]; 293.15 K): 1935.6 ± 5.2 m/s; electrical conductivity ([2]; 298.15 K): 0.0219 ± 0.0013 S/m; speed of sound ([2]; 298.15 K): 1911.8 ± 5.2 m/s; electrical conductivity ([2]; 303.15 K): 0.0327 ± 0.002 S/m; speed of sound ([2]; 303.15 K): 1892 ± 5.2 m/s; electrical conductivity ([2]; 308.15 K): 0.0455 ± 0.0027 S/m; speed of sound ([2]; 308.15 K): 1874.8 ± 5.2 m/s; electrical conductivity ([2]; 313.15 K): 0.0647 ± 0.0039 S/m; electrical conductivity ([2]; 318.15 K): 0.0897 ± 0.0054 S/m; speed of sound ([2]; 318.15 K): 1844.8 ± 5.2 m/s; electrical conductivity ([2]; 323.15 K): 0.109 ± 0.0066 S/m
